# Measurements from patent US12636373B2, “Prodrugs with a tridentate self-immolative linker” (The General Hospital Corporation, priority 2018, dated 2026).
# Where two headings read alike, the source gives them in different places. Where a SMILES comes first, the peptide text is derived from it. [ ]: non-standard residue; d: D form. The star is where a group is joined. ξ: configuration not given here. Dolaproine = CO[C@@H]([C@@H]1CCCN1)[C@@H](C)C(=O)O; X1 = C=CCOC(=O)Nc1ccc(C(OC(=O)*)C(=O)NCC)cc1; Dil = CC[C@H](C)[C@H](NC)[C@@H](CC(=O)O)OC; X2 = C[C@@H](N*)[C@@H](O)c1ccccc1; NMeV = CN[C@H](C(=O)O)C(C)C; ξV = CC(C)C(N)C(=O)O
# What was measured:
# [1] = system: HT1080 fibrosarcoma cancer cells; assay: Resazurin-based cytotoxicity assay, 72 h; conditions: for turn-on capacity in cytotoxicity: with vs without Pd-NP
# Procedure: (§2) In vitro NP characterization: 5,000 cells per well were added to 96-well plates for cytotoxicity assessment; cells were treated after overnight seeding with compound or the appropriate buffer control (drug-free PLGA-PEG NP), and assessed for viability 72 h later using PrestoBlue (Life Technologies) following the manufacturer's protocol.
# HT1080 cancer cells = assay: Subcellular drug accumulation by intrinsic anthracycline fluorescence microscopy; assay type: cell-based, human; conditions: HT1080, 24 h
# Procedure: FIGS. 3A-3D. […] Co-localization was determined by tabulating the fraction of NP-positive puncta (vesicles) in cells that contained high RFP expression or not (labeled red and gray, respectively; n>10 cells, bars are mean±std. dev.). b) Following 30 min pre-treatment with the indicated compounds, HT1080 cells were treated with the same NP as in a, and imaged 3 h later (n>6 biological replicates; mean±s.e.m.). c-d) HT1080 tumor cells were treated with C16proDOX, DOX, or Pd-NP with C16proDOX for 24 h, and then imaged by fluorescence microscopy (representative images shown in c) to evaluate subcellular drug accumulation based on endogenous anthracycline fluorescence (scale bar, 20 μm). Yellow lines (c) denote representative examples of how fluorescence intensity profiles were quantified from line-scans through cells (d), shown as means (thick line)±s.e.m. (shading; n>10), for hoechstand anthracycline fluorescence.
# [2] = In vitro NP prodrug release in PBS; assay type: physicochemical; conditions: over 72 h at 37° C. in PBS
# Procedure: Transmission electron microscopy (TEM) was performed in the Microscopy Core of the Center for Systems Biology/Program in Membrane Biology (MGH). […] Excess solution was blotted, grids were stained with phosphotungstic acid, and then blotted, dried and imaged. In vitro NP prodrug release was performed by incubating in PBS at 37° C., separating NPs using a 30 kDa molecular weight cutoff filter (Millipore Amicon) after 72 h, and measuring flow-through for drug content by absorbance (Nanodrop). NP was dissolved in DMF and also measured for drug content by absorbance. Pd-NP, Alloc2R110 and its nanoformulation, and all Pd compounds were synthesized and characterized as previously described.^5
# [3] = Pd-mediated uncaging of fluorogenic coumarin substrate (reaction kinetics and catalyst performance); conditions: PdCl2(TFP)2, HBSS
# Procedure: Reaction kinetics and catalyst performance. Alloc-SIL-dPEG4-AMC (8) was reacted at a concentration of 5 μM with palladium catalyst (Pd-1, Pd-2, Pd-3, Pd-4) at a concentration of 10 μM in HBSS and MEM (see FIG. 8). Alloc2R110 was reacted at a concentration of 5 μM with Pd-1 at a concentration of 10 μM in HBSS as described previously.2 Fluorescence was monitored for 10 h at room temperature using 96 well plates and a Tecan Safire 2 fluorescence plate reader.
# [4] = system: subcutaneous HT1080 xenograft tumors; assay: HT1080 xenograft tumor growth; assay type: in vivo, nu/nu mice
# Procedure: (§1) Cell lines and animal models: All animal research was performed in accordance with guidelines from the Institutional Subcommittee on Research Animal Care. HT1080 xenografts were generated by 2 million cells implanted subcutaneously in flanks of 6-8 week old female nu/nu mice (Cox7/MGH) in 50 μl PBS. MC38 syngeneic tumors were formed by intradermal implantation of 2 million cells in 50 μl PBS, in the flanks of 7-12 week old female C57BL/6 mice (JAX), following previously described inoculation protocols.^33 Four blinded caliper measurements per tumor were used to measure tumor size according to the formula V=(width)^2(length)/2; animals were randomly assigned to treatment groups. Experiments build on prior imaging, biodistribution, and longitudinal tumor growth data that likewise guided determination of experimental sample sizes.^5, 30 Treatment began approximately 3 weeks post-implantation once tumors reached an average diameter of 5.5±1.8 mm in the HT1080 model (mean±std. dev.; n=72), and roughly 2 weeks post-implantation in the MC38 model once tumors reached an average diameter of 5.45±1.2 mm (mean±std. dev.; n=14). […] Blood chemistry readouts were measured from plasma collected in heparinized tubes by terminal cardiac puncture under vaporized isoflurane anesthesia, using the MGH Veterinary Clinical Pathology lab and the automated DriChem blood chemistry analyzer (Heska). […]
# [5] = system: panel of 4 cancer cell lines; assay: Cytotoxicity across a panel of cancer cell lines, 72 h; assay type: cell-based; conditions: prodrug alone, concentrations ≤10 μM
# [6] = Body weight and blood chemistry of treated tumor-bearing animals; assay type: in vivo, mice; conditions: dual Pd-NP and C16proMMAE
# Procedure: as §1
# [7] = system: MC38 murine colon adenocarcinoma tumors; assay: MC38 syngeneic tumor growth; assay type: in vivo, C57BL/6 mice; conditions: combined with Pd-NP
# Procedure: as §1
# HT1080-EB3-mApple cells = assay: EB3 microtubule comet imaging in live cells; assay type: cell-based, human; conditions: 24 h
# Procedure: Microtubule imaging. EB3 tracking was performed using an FV1000 confocal laser scanning microscope on a 37° C. heated stage, with XLUMPLFLN 20× (NA 1.0) or LUMFLN 60× (NA 1.1) water-immersion objectives, 1-10× digital zoom, 559-nm diode laser, and BA575-620 emission filter (all Olympus America). […] EB3 tracks were automatically identified and analyzed from time-lapse datasets using u-track software,^35 with tuning of maximum gap number and minimum frame number across datasets to account for differences in image quality; ambiguous and spurious tracks and artifacts were excluded according to requirements for directional continuity (directional persistence as net displacement/path length>0.8) and movement (value>3 pixels). Speed was determined between frames in each track and averaged for each track by computing the mean of the middle 80% of between-frame values. Track overlay figures were produced using a custom python script. Averaged track speeds excluded outliers falling more than 1.5× the interquartile range for each biological replicate.
# HT1080 cells = assay type: cell-based, human; conditions: for uptake of fluorescent PLGA-PEG NPs: 30 min pre-treatment, imaged 3 h later
# Procedure: In vitro NP uptake imaging. To quantify subcellular localization of NPs in HT1080 cells, Rab7a-RFP and Lamp1-RFP fusion constructs were expressed using a commercial baculovirus platform (CellLight BacMam 2.0, Invitrogen), following manufacturing guidelines. Pharmacological modulation of NP uptake was performed using the following: staurosporine (1 μM; LC labs), latrunculin B (1 μM; Tocris), cytochalasin D (1 μM; Sigma), chloroquine (50 μM; Sigma), and ethylisopropyl amiloride EIPA (100 μM; Tocris). Cells were rinsed in fresh media immediately prior to imaging; only adherent cells were quantified. Chloroquine dose-response measurements were normalized to the C16proDOX control (rather than the chloroquine-free control), in order to compare relative effects on the potency of Pd-mediated C16proDOX activation itself 50 μM chloroquine alone caused a 15-30% decrease in cell viability.
# [8] = Resazurin-based cytotoxicity assay, 72 h; conditions: human, HT1080 fibrosarcoma cancer cells
# Procedure: as §2
# [9] = cited from earlier work
# [10] = without the C16 anchor; cited from earlier work
# [11] = Homo sapiens, HT-1080, 72 h, read-out: IC50 (concentration at which 50% of cells died)
smiles,measurement,setting,value
"C=CCOC(=O)Nc1ccc(C(OC(=O)N[C@H]2C[C@H](O[C@H]3C[C@](O)(C(=O)CO)Cc4c(O)c5c(c(O)c43)C(=O)c3c(OC)cccc3C5=O)O[C@@H](C)[C@H]2O)C(=O)NCCCCCCCCCCCCCCCC)cc1 (stereo partly drawn) [C16proDOX, Alloc-SIL-C16-Dox]","IC20, fold higher than Alloc-DOX","[1]; HT1080, without Pd-NP",roughly 15 fold
same,"IC20, fold higher than uncaged DOX","[1]; HT1080, without Pd-NP",~1900 fold
same,IC50,[1]; [11],> 50000 nM
same,subcellular accumulation,HT1080 cancer cells; co-incubation with Pd-NP,detectable increase of drug in the nucleus compared to the cytoplasm
same,subcellular accumulation,HT1080 cancer cells; without Pd-NP,accumulated primarily in cytoplasmic/perinuclear cellular compartments
same,release of the prodrug payload from the nanoformulation,[2],20%±6%
"C=CCOC(=O)Nc1ccc(C(OC(=O)Nc2ccc3c(C)cc(=O)oc3c2)C(=O)NCCOCCOCCOCCO)cc1 (stereo not drawn) [Alloc-SIL-PEG4-AMC, Alloc-SIL-AMC-dPEG4]",uncaging rate relative to Alloc2R110 (calculated second order rate constants),[3],approximately 1.5 fold
"C=CCOC(=O)Nc1ccc(C(OC(=O)N(C)[C@H](C(=O)NC(C(=O)N(C)[C@@H]([C@@H](C)CC)[C@@H](CC(=O)N2CCC[C@H]2[C@H](OC)[C@@H](C)C(=O)N[C@H](C)[C@@H](O)c2ccccc2)OC)C(C)C)C(C)C)C(=O)NCC)cc1 (stereo partly drawn) [C16proMMAE, Alloc-SIL-C16-MMAE] (X1-[NMeV][ξV][Dil][Dolaproine]-X2)",tumor growth at 2 days following the 2nd round of treatment,[4]; combined with Pd-NP,completely blocked
same,reduction in prodrug dose required for controlling tumor growth in vivo,[4]; compared to Alloc-DOX,50 fold
same,impact on cell growth,[5],no detectable impact on cell growth
same,enhanced cytotoxicity with sub-micromolar Pd-NP,"[1]; HT1080, sub-micromolar Pd-NP",> 10 fold
same,IC50,"[1]; Homo sapiens, HT-1080, 72 h, read-out: IC50 upon Pd-NP activation",0.015 nM
same,level of prodrug activation based on cytotoxicity,[1]; Pd-NP concentration 50 μM,> 90%
same,concentration at which cytotoxic upon activation by Pd-NP,[1]; with Pd-NP,< 100 pM
same,turn-on capacity in cytotoxicity,[1],"> 70,000 ×"
same,drug-induced weight loss,[6]; HT1080 or MC38 tumor-bearing animals,did not show drug-induced weight loss
same,blood chemistry analysis,[6]; MC38 tumor-bearing mice,no signs of drug-induced liver or kidney toxicity
same,tumor growth,[7],effective at slowing tumor growth
same,tumor growth at 2 days following the 2nd round of treatment,[7],completely blocked
same,microtubule comets,HT1080-EB3-mApple cells; 1 μM C16proMMAE combined with 35 μM Pd-NP,complete elimination of visible comets
same,microtubule comets (prevalence and growth speed),"HT1080-EB3-mApple cells; individual treatment, 1 μM MMAE or C16proMMAE, 35 μM Pd-NP",not substantially perturbed
same,release of the prodrug payload from the nanoformulation,[2],< 10%
"CCN(CC)CCCC(C)Nc1ccnc2cc(Cl)ccc12 (stereo not drawn) [chloroquine, reference compound]",NP accumulation in vesicles,"HT1080 cells; HT1080, 50 μM chloroquine co-treatment, 24 h",enhanced accumulation of NPs in distinctly large vesicles
same,impact on cytotoxicity of combined Pd-NP and C16proDOX treatment,"[1]; HT1080, 50 μM chloroquine, 50 μM Pd-NP, 72 h",only modest impact
same,"cytotoxicity at 72 h, 50 μM",[8],15 to 30%
"COc1cccc2c1C(=O)c1c(O)c3c(c(O)c1C2=O)C[C@@](O)(C(=O)CO)C[C@@H]3O[C@H]1C[C@H](N)[C@H](O)[C@H](C)O1 [doxorubicin, reference compound]",IC50,[1]; [11],100 nM
same,myelotoxicity,"[9]; solvent- and nano-formulations, equimolar doses",exhibited myelotoxicity
same,nano-encapsulation efficiency (earlier report),[10],22%
same,subcellular accumulation,HT1080 cancer cells; without Pd-NP,primarily accumulates in the nuclei of cancer cells
"C=CCOC(=O)N[C@H]1C[C@H](O[C@H]2C[C@](O)(C(=O)CO)Cc3c(O)c4c(c(O)c32)C(=O)c2c(OC)cccc2C4=O)O[C@@H](C)[C@H]1O [Alloc-DOX, reference compound]",IC50,"[1]; read-out: IC50 (concentration at which 50% of cells died), HT1080, 72 h, without Pd-NP",18000 nM
same,turn-on capacity in cytotoxicity,[1],~700 ×
same,myelotoxicity,[9]; dual Pd-NP and Alloc-DOX strategy,did not
C=C1[C@@H](C)[C@H]2[C@H](Cc3ccccc3)NC(=O)[C@]23[C@H](OC(C)=O)/C=C/[C@@](C)(O)C(=O)[C@@H](C)C/C=C/[C@H]3[C@@H]1O [cytochalasin D],uptake of fluorescent PLGA-PEG NPs,HT1080 cells,acutely reduced the uptake of NPs
C/C1=C/C(=O)O[C@@H]2C[C@@H](CC[C@H](C)/C=C\C=C\CC1)O[C@@](O)([C@@H]1CSC(=O)N1)C2 [latrunculin A],uptake of fluorescent PLGA-PEG NPs,HT1080 cells,acutely reduced the uptake of NPs
"CCN(c1nc(N)c(C(=O)N=C(N)N)nc1Cl)C(C)C [EIPA, 5-(N-Ethyl-N-isopropyl)amiloride]",uptake of fluorescent PLGA-PEG NPs,HT1080 cells,acutely reduced the uptake of NPs
CN[C@@H]1C[C@H]2O[C@@](C)([C@@H]1OC)n1c3ccccc3c3c4c(c5c6ccccc6n2c5c31)C(=O)NC4 [staurosporine],uptake of fluorescent PLGA-PEG NPs,HT1080 cells,decreased NP accumulation
